Test results from article PMC4672351, “Drug-Drug Interaction Potentials of Tyrosine Kinase Inhibitors via Inhibition of UDP-Glucuronosyltransferases” (Scientific Reports, 2015).

Columns and labels:
UGT1A8 = biological target: T1, UGT1A8 (Homo sapiens, UniProt Q9HAW9); experiment: Inhibition of 4-MU glucuronidation by recombinant UGT1A8; details: recombinant UGT1A8, pH 7.4, probe 4-MU
T1 sequence (Q9HAW9 26-530): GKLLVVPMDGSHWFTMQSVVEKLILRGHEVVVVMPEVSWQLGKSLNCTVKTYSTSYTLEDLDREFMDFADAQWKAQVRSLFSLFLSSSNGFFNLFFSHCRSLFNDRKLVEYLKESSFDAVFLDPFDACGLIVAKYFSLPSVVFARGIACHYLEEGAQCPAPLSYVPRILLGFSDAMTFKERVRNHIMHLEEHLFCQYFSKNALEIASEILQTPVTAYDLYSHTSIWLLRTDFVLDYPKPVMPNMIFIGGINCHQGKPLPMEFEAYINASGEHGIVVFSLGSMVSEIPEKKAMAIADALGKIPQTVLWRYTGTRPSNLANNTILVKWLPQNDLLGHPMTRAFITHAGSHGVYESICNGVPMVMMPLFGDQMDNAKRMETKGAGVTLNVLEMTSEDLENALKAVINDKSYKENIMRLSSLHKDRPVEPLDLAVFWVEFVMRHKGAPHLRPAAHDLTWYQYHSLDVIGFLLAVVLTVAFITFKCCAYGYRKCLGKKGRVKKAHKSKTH

UGT1A9 [1] = biological target: T2, UGT1A9 (Homo sapiens, UniProt O60656); experiment: biochemical
T2 sequence (O60656 26-530): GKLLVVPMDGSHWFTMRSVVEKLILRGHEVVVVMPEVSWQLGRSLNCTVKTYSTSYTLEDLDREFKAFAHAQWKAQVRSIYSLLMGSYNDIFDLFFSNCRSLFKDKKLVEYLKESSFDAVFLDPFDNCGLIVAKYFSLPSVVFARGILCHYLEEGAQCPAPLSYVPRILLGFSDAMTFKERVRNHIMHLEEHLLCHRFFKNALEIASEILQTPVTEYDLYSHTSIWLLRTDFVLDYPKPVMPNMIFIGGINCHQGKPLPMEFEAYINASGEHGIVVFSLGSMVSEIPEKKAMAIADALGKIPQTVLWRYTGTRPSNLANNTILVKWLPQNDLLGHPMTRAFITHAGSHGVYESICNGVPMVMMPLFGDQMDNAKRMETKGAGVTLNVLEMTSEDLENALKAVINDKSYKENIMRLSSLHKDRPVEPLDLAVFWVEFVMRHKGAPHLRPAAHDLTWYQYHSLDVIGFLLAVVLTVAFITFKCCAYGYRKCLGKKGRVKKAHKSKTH

[2] = Estimation of in vivo TKI concentrations after repeated oral administration; parameters: species or system human; details: calculated from literature PK parameters
UGT1A9 [3] = biological target: T2, UGT1A9; experiment: in vitro; details: recombinant UGT1A9, pH 7.4, probe 4-MU
UGT1A9 [4] = biological target: T2, UGT1A9
UGT1A7 = biological target: T3, UGT1A7 (Homo sapiens, UniProt Q9HAW7); experiment: Prediction of DDI risk (AUCi/AUC) from in vitro data, UGT1A7 substrates; parameters: purchased BD Gentest (Woburn, MA); host or cells: baculovirus-infected insect cells
T3 sequence (Q9HAW7 26-530): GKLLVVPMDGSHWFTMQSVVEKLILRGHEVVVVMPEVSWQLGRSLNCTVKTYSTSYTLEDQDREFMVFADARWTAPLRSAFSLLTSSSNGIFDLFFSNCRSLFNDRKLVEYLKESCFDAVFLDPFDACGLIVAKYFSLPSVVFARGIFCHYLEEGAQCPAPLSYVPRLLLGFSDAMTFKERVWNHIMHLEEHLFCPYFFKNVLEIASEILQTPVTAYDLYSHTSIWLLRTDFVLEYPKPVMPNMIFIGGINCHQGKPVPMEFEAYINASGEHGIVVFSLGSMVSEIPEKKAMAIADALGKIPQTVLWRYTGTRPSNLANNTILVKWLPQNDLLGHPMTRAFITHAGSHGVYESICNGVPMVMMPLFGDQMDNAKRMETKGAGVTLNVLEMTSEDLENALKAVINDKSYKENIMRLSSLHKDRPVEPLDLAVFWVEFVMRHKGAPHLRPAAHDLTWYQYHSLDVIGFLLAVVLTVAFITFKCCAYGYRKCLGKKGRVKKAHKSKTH

UGT1A6 = biological target: T4, UGT1A6 (Homo sapiens, UniProt P19224); experiment: Inhibition of 4-MU glucuronidation by recombinant UGT1A6; assay type: in vitro ADME; details: recombinant UGT1A6, pH 7.4, probe 4-MU, 100 μM inhibitor, 4-MU substrate, positive control diclofenac, read-out: Remaining activities (%) of UGT1A6
T4 construct: purchased BD Gentest (Woburn, MA); host or cells: baculovirus-infected insect cells
T4 sequence (P19224 27-532): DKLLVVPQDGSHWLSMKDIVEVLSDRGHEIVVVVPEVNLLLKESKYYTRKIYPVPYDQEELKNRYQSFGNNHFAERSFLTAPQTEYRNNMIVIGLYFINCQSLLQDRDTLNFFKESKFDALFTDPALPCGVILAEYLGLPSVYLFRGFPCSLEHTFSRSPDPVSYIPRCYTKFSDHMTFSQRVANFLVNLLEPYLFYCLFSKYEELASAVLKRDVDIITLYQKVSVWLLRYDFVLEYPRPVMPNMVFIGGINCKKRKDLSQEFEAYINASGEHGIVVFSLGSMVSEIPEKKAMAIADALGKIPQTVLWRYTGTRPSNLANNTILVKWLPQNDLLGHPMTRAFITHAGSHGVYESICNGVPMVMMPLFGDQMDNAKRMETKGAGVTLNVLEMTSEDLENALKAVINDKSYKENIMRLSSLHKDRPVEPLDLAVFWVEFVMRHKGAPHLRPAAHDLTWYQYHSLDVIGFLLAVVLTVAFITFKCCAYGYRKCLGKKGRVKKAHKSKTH

CNC(=O)c1ccccc1Sc1ccc2c(/C=C/c3ccccn3)n[nH]c2c1 [Axitinib, axitinib]
activity at 30 min, 100 µM (UGT1A8): 54.6 ± 2.4%
IC50 (UGT1A9 [1]): 3.6 ± 0.7 µM
Calculated Concentrations Iav (average systemic plasma concentration) [2]: 0.024 µM
Calculated Concentrations Iin,u (maximum unbound hepatic input concentration) [2]: 0.00086 µM
Calculated Concentrations Imax,u (maximum unbound systemic plasma concentration) [2]: 0.00067 µM
activity at 30 min, 100 µM (UGT1A9 [3]): 44.8 ± 0.2%
Predicted AUCi/AUC ratio of UGT1A9 substrates (UGT1A9 [4]; fm is 1): ~1
Predicted AUCi/AUC ratio of UGT1A7 substrates (UGT1A7; fm is 1): ~1
activity at 30 min, 100 µM (UGT1A6): 85.8 ± 3.5%

CS(=O)(=O)CCNCc1ccc(-c2ccc3ncnc(Nc4ccc(OCc5cccc(F)c5)c(Cl)c4)c3c2)o1 [Lapatinib, lapatinib]
activity at 30 min, 100 µM (UGT1A8): 73.5 ± 10.6%
Calculated Concentrations Iav (average systemic plasma concentration) [2]: 0.79 µM
Calculated Concentrations Iin,u (maximum unbound hepatic input concentration) [2]: 0.12 µM
Calculated Concentrations Imax,u (maximum unbound systemic plasma concentration) [2]: 0.011 µM
activity at 30 min, 100 µM (UGT1A9 [3]): 51.1 ± 7.9%
Predicted increase in the AUC of substrate by UGT1A7 inhibition (UGT1A7; fm not given, Imax,u used): ~1%
activity at 30 min, 100 µM (UGT1A6): 88.4 ± 5.9%

COc1cc2c(Nc3ccc(Br)cc3F)ncnc2cc1OCC1CCN(C)CC1 [Vandetanib, vandetanib]
activity at 30 min, 100 µM (UGT1A8): 56 ± 6.3%
IC50 (UGT1A9 [1]): 5 ± 0.4 µM
Ki (UGT1A9 [1]): 9 ± 1.2 µM
Calculated Concentrations Iav (average systemic plasma concentration) [2]: 1.99 µM
Calculated Concentrations Iin,u (maximum unbound hepatic input concentration) [2]: 0.23 µM
Calculated Concentrations Imax,u (maximum unbound systemic plasma concentration) [2]: 0.12 µM
activity at 30 min, 100 µM (UGT1A9 [3]): 14.1 ± 4.7%
Predicted increase in the AUC of substrate by UGT1A9 inhibition (UGT1A9 [4]; fm not given): about 2%
activity at 30 min, 100 µM (UGT1A6): 55.1 ± 1.1%
